Measurements reported in patent publication US10577610B2, “EpCAM aptamers and conjugates thereof” (Deakin University, priority 2015, dated 2020).
[invdT] = inverted (3'-3') thymidine; {TYE665} = TYE665 fluorescent dye

Tests used:
[1] = molecular target: T1, native EpCAM protein expressed on the cell surface (HEY cells) (Homo sapiens, UniProt P16422); assay: Flow cytometry binding assay on HEY cells (EpCAM-positive); details: for Kd: HEY (EpCAM-positive) cells, flow cytometry, n=3
T1 construct: host or cells: HEY ovarian cancer cells
T1 sequence (P16422 24-314): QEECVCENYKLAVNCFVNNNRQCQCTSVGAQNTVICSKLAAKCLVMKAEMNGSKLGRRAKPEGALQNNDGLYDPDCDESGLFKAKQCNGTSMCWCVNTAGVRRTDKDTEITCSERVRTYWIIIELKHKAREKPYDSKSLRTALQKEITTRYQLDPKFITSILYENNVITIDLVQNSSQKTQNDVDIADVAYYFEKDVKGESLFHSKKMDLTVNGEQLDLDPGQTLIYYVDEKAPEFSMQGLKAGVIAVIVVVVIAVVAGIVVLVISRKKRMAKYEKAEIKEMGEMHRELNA
Method: In order to determine the binding affinity (equilibrium dissociation constant KD) of the aptamers. Binding assays were conducted to measure the binding to native EpCAM protein expressed on the cell surface. The aptamers were incubated with the cells at concentrations ranging from 0 nM to 400 nM. These were subsequently analysed by flow cytometry. Aptamers were thawed from storage (−20° C.) prior to use. These were then diluted via serial dilutions with phosphate buffered saline (PBS) in order to achieve the desired concentrations. PBS was supplemented with a MgCl2 concentration appropriate for the aptamer (1 mM for anti-TfR aptamers; 5 mM for conjugate aptamers). Aptamers were then folded into their 3D structures using a thermocycler (85° C. for 5 minutes, slow cooling to 22° C. over 10 minutes and 37° C. for 15 minutes).
Concurrently, subcultured cells were incubated in blocking buffer (PBS with 10% FCS, 1 mg/mL BSA, 0.1 mg/mL tRNA) for 30 minutes. Following centrifugation, blocking buffer was removed and cells were resuspended in binding buffer (PBS with 10% FCS, 1 mg/mL BSA, 0.1 mg/mL tRNA). Cells (50 μL) were then incubated with the aptamers (50 μL) for 30 minutes at 37° C. at a range of concentrations (0 nM, 20 nM, 40 nM, 60 nM, 80 nM, 100 nM, 200 nM, 400 nM). Following this, cells were washed in 100 μL PBS three times before final resuspension for flow cytometry.
Aptamers were incubated with the chosen cell lines (bEnd.3 cells, mouse cells positive for TfR; HEY cells, human ovarian cancer cell line positive for EpCAM; and MOLT4 human cells negative for both TfR and EpCAM) at a range of concentrations. Aptamer-bound cells were analysed using a FACS Canto II flow cytometer (Becton Dickinson), counting 10,000 events for each sample, in order to determine the binding affinity of the aptamers. […] The value for the auto fluorescent 0 nM concentration was subtracted from the other figures to account for background fluorescence (Li N et al (2009) Journal of Proteome Research 8(5):2438-48). The resultant values were then used to determine the dissociation constant (KD) via the Graph Pad Prism 3 software. […]
The binding affinities of aptamers Bi1, Bi2 and Bi3 were determined semi-quantitatively via flow cytometry, using bEnd.3 cells to assess reactivity with TfR, HEY cells to determine EpCAM specificity and the MOLT4 cell line as a negative control. Three independent binding assays were performed for these aptamer against all three cell lines (bEnd.3, HEY and MOLT4). […]

[2] = tested on: in vitro BBB model (bEnd.3 endothelial monolayer); assay: Aptamer permeability across in vitro blood brain barrier model (HEY-bEnd.3 co-culture); type: in vitro ADME, mouse; details: 2 μM in upper compartment, three hours
Method: In order to assess the ability of the TfR containing aptamers to pass through an endothelial cell monolayer via receptor mediated transport (RMT) an in vitro model of the BBB was produced as shown schematically in FIG. 1. Transwell inserts (polyethylene terephthalate (PET) with 0.4 μm diameter pores) within a 24-well plate (Corning) were incubated with 100 μL of 50% Collagen IV for 2 hours at 37° C. Flasks of bEnd.3 cells were trypsinised to generate a single-cell suspension, and counted using a haemocytometer and trypan blue to ensure that a sufficient proportion of cells were alive. These were then centrifuged and resuspended in media. Wells were filled with 800 μL of serum-free media and transwell inserts were placed on top. Cells were then seeded in 90 μL of serum-free media at a density of 1×10^6 cells/cm^2 and were allowed to incubate at 37° C. Cells were allowed to settle for 6 hours and then 60 μL of enhanced media (DMEM low glucose: Ham's F12 (1:1), (both serum-free) 550 nM hydrocortisone, 32 μM cAMP, 17.5 μM aminophylline, 1 μM retinoic acid, 5 μg/mL insulin, 2.75 μg/mL transferrin, 2.5 ng/mL sodium selenite, 100 ng/mL bFGF (basic fibroblast growth factor), 20 ng/mL EGF (epidermal growth factor)) (Wuest D M et al (2013) Journal of Neuroscience Methods 212(2):211-21) was added to the transwells. Media in both compartments were replaced the next day with enhanced media in order to supplement the growth of the monolayer.
HEY cells were subcultured and counted using a haemocytometer and trypan blue in order to assess the percentage of living cells. Subsequently, they were diluted in DMEM media at a concentration of 87 500 cells/mL. Media was removed from the bottom compartment of the in vitro BBB model and replaced with 800 μL of the HEY cell solution, seeding at 70 000 cells per well. These were allowed to incubate overnight. Next, media was removed from the upper compartment of the transwells and 100 μL of aptamer at a concentration of 2 μM was pipetted on top of the transwell membrane. […]

Substance | Kd [1] [nM] | Internalisation into HEY cells in bottom compartment after incubation on in vitro BBB model [2] | Binding to HEY cell line (specific or non-specific) ([1]; flow cytometry binding curve)
5′-GCGCGGGCCCGCGCTAACGGAGGTTGCGTCCGT-3′ (GCGCGGGCCCGCGCTAACGGAGGTTGCGTCCGN; DNA sequence of aptamer conjugate Bi2; (33)..(33) n is t or 3′ inverted deoxythymidine (dT)) | 205 ± 73.3 | observed to become internalised into the HEY cells | –
5′-GCGCGGTACCGCGCTAACGGAGGTTGCGTCCGT-3′ (GCGCGGTACCGCGCTAACGGAGGTTGCGTCCGN; listed as DNA, chemistry not given here) [Bi3] | 219 ± 49.2 | observed to become internalised into the HEY cells | –
Bi1: aptamer conjugate based on TfR1 and scrambled EpCAM binding loop, negative control, SEQ ID NO:8 (GCGCGTGCACGCGCTAACGGATTCCTTTTCCGN; listed as DNA, further chemistry not given here) | 921 ± 270 | not observed inside HEY cells | –
TfR3: version of TfR1 with scrambled binding loop sequence, SEQ ID NO:6 (DNA GCGTGGTACCACGC; DNA, 5' {TYE665}, 3' [invdT], backbone not given here) | – | – | clear non-specific binding
